In patent US11697648B2, “Fused pyrimidine pyridinone compounds as JAK inhibitors” (THERAVANCE BIOPHARMA R&D IP, LLC, priority 2019, dated 2023):

Columns and labels:
JAK1 = JAK1 (Homo sapiens (Human), UniProt P23458); experiment: Biochemical JAK1 kinase assay (LanthaScreen)
In short: (§1)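 GST-JAK + GFP-STAT1 peptide, HEPES pH 7.5/MgCl2/EGTA/Brij-35 buffer; cpd preincubation 1 h RT; ATP start, 1 h RT; stop with 10 mM EDTA + 2 nM Tb-anti-pSTAT1; TR-FRET 520/495. 4-parameter IC50 → pKi (Cheng-Prusoff).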

JAK2 = JAK2 (Homo sapiens (Human), UniProt O60674); experiment: Biochemical JAK2 kinase assay (LanthaScreen)
Chain of JAK2 (O60674 whole entry): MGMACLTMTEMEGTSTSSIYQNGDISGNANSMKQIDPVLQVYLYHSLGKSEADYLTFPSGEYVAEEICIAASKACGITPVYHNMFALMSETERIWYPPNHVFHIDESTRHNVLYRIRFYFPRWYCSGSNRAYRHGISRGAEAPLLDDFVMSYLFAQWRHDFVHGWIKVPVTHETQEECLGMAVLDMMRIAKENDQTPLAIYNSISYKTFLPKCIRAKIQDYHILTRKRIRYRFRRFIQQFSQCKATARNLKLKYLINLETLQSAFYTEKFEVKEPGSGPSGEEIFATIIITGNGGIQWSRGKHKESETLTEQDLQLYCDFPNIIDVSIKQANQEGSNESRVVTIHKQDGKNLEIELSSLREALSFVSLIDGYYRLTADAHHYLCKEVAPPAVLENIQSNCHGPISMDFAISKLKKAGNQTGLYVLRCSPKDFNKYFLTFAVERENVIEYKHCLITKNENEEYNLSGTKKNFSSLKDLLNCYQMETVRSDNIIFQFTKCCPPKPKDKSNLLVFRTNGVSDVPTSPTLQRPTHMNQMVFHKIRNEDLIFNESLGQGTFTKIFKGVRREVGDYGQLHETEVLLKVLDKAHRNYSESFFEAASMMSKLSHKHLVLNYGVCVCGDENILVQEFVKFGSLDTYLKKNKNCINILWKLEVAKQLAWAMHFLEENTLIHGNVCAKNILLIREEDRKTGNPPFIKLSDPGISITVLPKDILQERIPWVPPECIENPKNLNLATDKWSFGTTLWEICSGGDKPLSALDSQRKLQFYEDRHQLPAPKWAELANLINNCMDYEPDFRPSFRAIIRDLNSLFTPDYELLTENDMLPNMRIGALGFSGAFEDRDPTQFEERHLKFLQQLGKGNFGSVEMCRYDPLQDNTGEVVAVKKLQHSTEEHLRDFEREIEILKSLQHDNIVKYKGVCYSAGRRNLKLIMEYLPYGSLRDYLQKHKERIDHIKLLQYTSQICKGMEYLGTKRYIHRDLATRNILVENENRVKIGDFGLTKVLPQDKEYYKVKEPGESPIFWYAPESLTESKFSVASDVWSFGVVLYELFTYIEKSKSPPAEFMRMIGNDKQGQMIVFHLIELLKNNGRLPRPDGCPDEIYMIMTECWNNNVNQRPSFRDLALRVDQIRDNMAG
In short: as §1

JAK3 = JAK3 (Homo sapiens (Human), UniProt P52333); experiment: Biochemical JAK3 kinase assay (LanthaScreen); settings: for JAK3 (pKi)-JAK1 (pKi): selectivity JAK3 over JAK1, difference of pKi
Chain of JAK3 (P52333 whole entry): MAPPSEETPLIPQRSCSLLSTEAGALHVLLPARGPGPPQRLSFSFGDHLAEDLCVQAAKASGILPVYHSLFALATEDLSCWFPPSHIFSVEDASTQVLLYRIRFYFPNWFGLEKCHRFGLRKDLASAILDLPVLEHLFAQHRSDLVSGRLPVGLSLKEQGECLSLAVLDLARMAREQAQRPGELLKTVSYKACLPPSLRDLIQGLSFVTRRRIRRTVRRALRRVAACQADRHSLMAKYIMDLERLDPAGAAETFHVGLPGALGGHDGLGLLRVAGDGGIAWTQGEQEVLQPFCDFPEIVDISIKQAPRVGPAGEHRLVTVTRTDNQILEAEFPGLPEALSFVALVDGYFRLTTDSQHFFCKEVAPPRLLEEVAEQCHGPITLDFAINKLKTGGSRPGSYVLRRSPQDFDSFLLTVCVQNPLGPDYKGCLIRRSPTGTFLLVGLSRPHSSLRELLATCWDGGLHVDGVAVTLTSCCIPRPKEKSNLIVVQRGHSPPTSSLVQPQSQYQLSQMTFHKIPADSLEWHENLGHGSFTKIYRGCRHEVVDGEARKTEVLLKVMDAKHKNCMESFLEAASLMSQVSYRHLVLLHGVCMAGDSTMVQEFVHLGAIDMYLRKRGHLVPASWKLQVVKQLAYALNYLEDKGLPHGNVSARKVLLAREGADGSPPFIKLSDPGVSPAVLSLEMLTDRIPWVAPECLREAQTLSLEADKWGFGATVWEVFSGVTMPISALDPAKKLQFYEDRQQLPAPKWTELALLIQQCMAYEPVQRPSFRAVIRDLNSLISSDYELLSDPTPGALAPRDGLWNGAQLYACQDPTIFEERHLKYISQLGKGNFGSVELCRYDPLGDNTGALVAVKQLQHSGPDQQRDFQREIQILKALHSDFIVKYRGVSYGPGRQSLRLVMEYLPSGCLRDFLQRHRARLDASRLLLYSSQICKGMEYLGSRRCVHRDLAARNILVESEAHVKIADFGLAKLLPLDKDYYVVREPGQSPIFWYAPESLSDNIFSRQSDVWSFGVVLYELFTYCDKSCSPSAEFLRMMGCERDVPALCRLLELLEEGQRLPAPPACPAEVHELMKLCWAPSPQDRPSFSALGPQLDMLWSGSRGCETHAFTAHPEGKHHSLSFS
In short: as §1

Tyk2 = Tyk2 (Homo sapiens (Human), UniProt P29597); experiment: Biochemical Tyk2 kinase assay (LanthaScreen)
Chain of Tyk2 (P29597 whole entry): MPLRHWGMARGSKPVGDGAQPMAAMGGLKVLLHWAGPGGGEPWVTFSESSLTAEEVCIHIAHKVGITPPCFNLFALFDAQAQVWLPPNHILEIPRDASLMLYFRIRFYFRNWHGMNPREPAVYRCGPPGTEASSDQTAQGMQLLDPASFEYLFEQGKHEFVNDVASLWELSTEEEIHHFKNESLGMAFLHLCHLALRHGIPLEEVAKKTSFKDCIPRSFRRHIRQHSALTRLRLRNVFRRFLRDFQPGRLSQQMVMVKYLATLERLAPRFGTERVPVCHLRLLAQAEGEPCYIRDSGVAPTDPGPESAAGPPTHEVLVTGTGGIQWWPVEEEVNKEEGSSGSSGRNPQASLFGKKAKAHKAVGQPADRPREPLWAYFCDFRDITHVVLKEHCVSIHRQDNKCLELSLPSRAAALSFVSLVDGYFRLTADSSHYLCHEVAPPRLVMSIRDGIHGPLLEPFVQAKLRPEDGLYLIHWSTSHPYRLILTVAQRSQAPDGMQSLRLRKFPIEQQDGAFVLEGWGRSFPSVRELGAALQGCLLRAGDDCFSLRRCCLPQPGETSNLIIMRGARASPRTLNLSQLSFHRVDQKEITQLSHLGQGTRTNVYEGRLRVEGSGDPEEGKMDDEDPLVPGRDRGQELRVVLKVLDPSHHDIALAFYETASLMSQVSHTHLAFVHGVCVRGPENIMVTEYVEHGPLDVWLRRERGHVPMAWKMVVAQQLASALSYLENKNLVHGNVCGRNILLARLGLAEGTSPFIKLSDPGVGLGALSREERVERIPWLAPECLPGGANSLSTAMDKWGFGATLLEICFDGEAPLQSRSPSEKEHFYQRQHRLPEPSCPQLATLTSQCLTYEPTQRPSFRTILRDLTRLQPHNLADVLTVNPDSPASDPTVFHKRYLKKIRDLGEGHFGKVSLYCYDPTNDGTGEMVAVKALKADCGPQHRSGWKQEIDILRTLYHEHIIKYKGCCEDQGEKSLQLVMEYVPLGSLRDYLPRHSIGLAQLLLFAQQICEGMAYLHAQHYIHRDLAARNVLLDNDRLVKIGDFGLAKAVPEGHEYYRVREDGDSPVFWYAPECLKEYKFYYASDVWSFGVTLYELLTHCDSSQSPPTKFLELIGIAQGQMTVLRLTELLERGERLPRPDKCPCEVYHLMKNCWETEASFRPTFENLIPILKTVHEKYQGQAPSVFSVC
In short: as §1

[1] = test system: IL-2 stimulated STAT5 phosphorylation in Tall-1 human T cell line (JAK3); experiment: Cellular JAK3 potency assay: inhibition of IL-2 stimulated pSTAT5 in Tall-1 T cells; assay type: cell-based; settings: IL-2 stimulated pSTAT5, Tall-1 T cells
In short: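 AlphaLISA SureFire Ultra measures STAT5 Tyr694/699 phosphorylation in lysed Tall-1 human T cells. Cells were exposed to compound for 1 h at 37 °C before a 30 min IL-2 challenge (300 ng/ml final). Values are pIC50 means with standard deviation from signal-versus-concentration curves.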

Caco-2 cell monolayers = experiment: Caco-2 permeation assay; assay type: in vitro ADME; settings: 5 μM, A-B direction, with Verapamil (25 μM)
In short: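 Passive A-to-B permeability with P-gp inhibited by verapamil (25 μM); compound at 5 μM, n=2. Both compartments sampled at t0 and t120 and quantified by LC-MS/MS, giving apparent permeability in cm/sec from flux, area and concentration.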

[2] = Colon and plasma mouse pharmacokinetics; assay type: in vivo; settings: mouse, colon tissue / plasma; male Balb/c mice, 10 mg/kg PO; ratio of the colon AUC to the plasma AUC
In short: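 Male Balb/c mice given 10 mg/kg PO in 1% HPMC + 0.1% Tween-80; plasma, colon tissue and colon contents taken at 0.5, 2 and 6 h, quantified by LC/MS/MS. Non-compartmental analysis on means of 2 animals/time point; colon:plasma ratio taken as colon AUC over plasma AUC.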

Chain of JAK1 (P23458 whole entry): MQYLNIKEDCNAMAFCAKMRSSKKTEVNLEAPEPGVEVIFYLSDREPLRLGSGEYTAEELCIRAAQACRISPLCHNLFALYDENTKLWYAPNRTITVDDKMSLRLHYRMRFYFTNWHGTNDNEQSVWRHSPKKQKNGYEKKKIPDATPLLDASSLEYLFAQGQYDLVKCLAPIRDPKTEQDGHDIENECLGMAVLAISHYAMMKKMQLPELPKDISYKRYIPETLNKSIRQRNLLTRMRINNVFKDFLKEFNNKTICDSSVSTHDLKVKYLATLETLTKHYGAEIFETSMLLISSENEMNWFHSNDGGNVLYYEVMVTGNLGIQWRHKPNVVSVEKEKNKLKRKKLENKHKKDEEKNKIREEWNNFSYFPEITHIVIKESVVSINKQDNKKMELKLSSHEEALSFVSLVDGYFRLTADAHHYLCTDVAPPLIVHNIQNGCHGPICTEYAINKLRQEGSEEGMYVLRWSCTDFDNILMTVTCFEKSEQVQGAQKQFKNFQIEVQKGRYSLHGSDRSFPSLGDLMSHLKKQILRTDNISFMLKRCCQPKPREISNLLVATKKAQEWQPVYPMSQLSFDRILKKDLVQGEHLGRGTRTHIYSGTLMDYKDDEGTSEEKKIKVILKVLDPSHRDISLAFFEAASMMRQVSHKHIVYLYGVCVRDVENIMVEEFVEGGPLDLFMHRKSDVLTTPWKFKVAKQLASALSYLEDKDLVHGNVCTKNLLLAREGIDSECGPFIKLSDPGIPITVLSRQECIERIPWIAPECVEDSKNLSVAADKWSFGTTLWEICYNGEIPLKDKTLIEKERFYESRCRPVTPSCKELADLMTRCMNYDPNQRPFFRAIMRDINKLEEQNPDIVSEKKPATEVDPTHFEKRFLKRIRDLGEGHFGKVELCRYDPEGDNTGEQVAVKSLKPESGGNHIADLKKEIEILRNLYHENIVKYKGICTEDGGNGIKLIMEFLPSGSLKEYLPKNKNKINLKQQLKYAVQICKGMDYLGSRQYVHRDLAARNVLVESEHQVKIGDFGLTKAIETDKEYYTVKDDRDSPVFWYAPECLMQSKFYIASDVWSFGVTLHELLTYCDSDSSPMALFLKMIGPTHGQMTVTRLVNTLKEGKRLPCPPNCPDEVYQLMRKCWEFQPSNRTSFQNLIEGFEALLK

SMILES | JAK 1 (pKi) (JAK1) | JAK 2 (pKi) (JAK2) | JAK 3 (pKi) (JAK3) | JAK3 (pKi)-JAK1 (pKi) (JAK3) | Tyk 2 (pKi) (Tyk2) | Tall-1 (pIC50) [1] | Caco Kp (Caco-2 cell monolayers) | Kp [2]
C=CC(=O)N1CC(CCn2c(=O)ccc3cnc(Nc4cccc(CN5CCN(C)CC5)c4)nc32)C1 [Example 52] | E (E represents a pKi value of 7 or below (Ki of 100 nM or above)) | E (E represents a pKi value of 7 or below (Ki of 100 nM or above)) | B (B represents pKi value between 9 and 10 (Ki between 1 nM and 0.1 nM)) | A (A represents a value of 3 or above) | E (E represents a pKi value of 7 or below (Ki of 100 nM or above)) | B (B represents a pC50 value between 6.7 (included) and 7.5 (IC50 between 200 nM and 32 nM)) | A (A represents a value below 5×10^−6 cm/sec) | > 100
C=CC(=O)N1CC(CCn2c(=O)ccc3cnc(Nc4ccc(N5CCN(C)CC5)nc4)nc32)C1 [Example 8, 8-(2-(1-acryloylazetidin-3-yl)ethyl)-2-((6-(4-methylpiperazin-1-yl)pyridin-3-yl)amino)pyrido[2,3-d]pyrimidin-7(8H)-one] | E (E represents a pKi value of 7 or below (Ki of 100 nM or above)) | E (E represents a pKi value of 7 or below (Ki of 100 nM or above)) | B (B represents pKi value between 9 and 10 (Ki between 1 nM and 0.1 nM)) | A (A represents a value of 3 or above) | E (E represents a pKi value of 7 or below (Ki of 100 nM or above)) | B (B represents a pC50 value between 6.7 (included) and 7.5 (IC50 between 200 nM and 32 nM)) | A (A represents a value below 5×10^−6 cm/sec) | > 100
C=CC(=O)N1CC(CCn2c(=O)ccc3cnc(Nc4cccc(CN5CCOCC5)c4)nc32)C1 [Example 27] | E (E represents a pKi value of 7 or below (Ki of 100 nM or above)) | E (E represents a pKi value of 7 or below (Ki of 100 nM or above)) | B (B represents pKi value between 9 and 10 (Ki between 1 nM and 0.1 nM)) | A (A represents a value of 3 or above) | E (E represents a pKi value of 7 or below (Ki of 100 nM or above)) | B (B represents a pC50 value between 6.7 (included) and 7.5 (IC50 between 200 nM and 32 nM)) | C (C represents a value between 10×10^−6 and 30×10^−6 cm/sec) | > 100
